Consider seven compounds from US10683272B2 (THE JOHNS HOPKINS UNIVERSITY, priority 2014, dated 2020).

Where two headings read alike, the source gives them in different places. Where a SMILES comes first, the peptide text is derived from it. [ ]: non-standard residue; d: D form. The star is where a group is joined. ξ: configuration not given here. X1 = O=C(O)CC[C@H](NC(=O)N[C@@H](CCCCNC(=O)CCCCCCC(=O)*)C(=O)O)C(=O)O; DOTA = O=C(O)CN1CCN(CC(=O)O)CCN(CC(=O)*)CCN(CC(=O)O)CC1; ξF = NC(Cc1ccccc1)C(=O)O

One data set deals with PSMA (Homo sapiens, UniProt Q04609). The data set is described as follows: PSMA inhibitory activities, fluorescence-based assay (Example 3). It counts as biochemical. As to the method: PSMA inhibitory activities were determined using a fluorescence-based assay (Banerjee, Pullambhatla, Byun, et al., 2011). Enzyme inhibitory constants (Ki values) were generated using the Cheng-Prusoff conversion (Cheng and Prusoff, 1973). Sub-lines of the androgen independent PC-3 human prostate cancer xenograft were used (Banerjee, Pullambhatla, Byun, et al., 2011). Those sub-lines have been modified to express high (PC-3 PIP) or naturally produce low (PC-3 flu) levels of PSMA (Dr. Warren Heston, Cleveland Clinic, Cleveland, Ohio).
PSMA, sequence (Q04609 whole entry): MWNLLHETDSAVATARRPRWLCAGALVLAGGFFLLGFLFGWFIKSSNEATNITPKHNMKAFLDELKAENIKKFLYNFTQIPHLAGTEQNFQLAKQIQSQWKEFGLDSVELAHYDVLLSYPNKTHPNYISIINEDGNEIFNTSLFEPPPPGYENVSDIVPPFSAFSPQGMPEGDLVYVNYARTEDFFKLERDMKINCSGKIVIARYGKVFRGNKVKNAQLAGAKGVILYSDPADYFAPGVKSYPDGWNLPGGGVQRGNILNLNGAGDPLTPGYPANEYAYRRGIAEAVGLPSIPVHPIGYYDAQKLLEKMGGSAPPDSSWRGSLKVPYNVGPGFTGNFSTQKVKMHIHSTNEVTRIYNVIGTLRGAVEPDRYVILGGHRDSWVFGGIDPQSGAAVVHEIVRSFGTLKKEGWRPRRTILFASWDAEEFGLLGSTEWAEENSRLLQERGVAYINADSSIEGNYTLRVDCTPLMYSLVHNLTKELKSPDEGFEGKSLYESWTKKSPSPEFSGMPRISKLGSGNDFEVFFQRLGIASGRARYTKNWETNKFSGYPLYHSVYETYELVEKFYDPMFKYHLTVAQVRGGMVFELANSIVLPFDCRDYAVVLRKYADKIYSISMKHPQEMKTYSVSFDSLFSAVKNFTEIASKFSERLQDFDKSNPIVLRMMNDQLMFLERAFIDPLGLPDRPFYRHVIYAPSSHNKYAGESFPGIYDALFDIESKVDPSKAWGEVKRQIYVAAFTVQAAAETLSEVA

For data set [1], the system named is PC-3 PIP and PC-3 flu tumors.

The Ki is a dissociation constant, usually derived from enzyme kinetics or from competition with a known ligand. High values mean weaker binding, low ones tighter binding. In the case of `O=C([O-])CN1CCN(CC(=O)O)CCN(CC(=O)[O-])CC(Cc2ccc(NC(=S)NCCCCNC(=O)CCCCCCC(=O)NCCCC[C@H](NC(=O)N[C@@H](CCC(=O)O)C(=O)O)C(=O)O)cc2)N(CC(=O)[O-])CC1.[Y+3]` (stereo partly shown) [^89Y-6], at PSMA, the inhibitory constant (Ki) was found to be 2.99 nM.
At PSMA, `O=C(O)CC[C@H](NC(=O)N[C@@H](CCCCNC(=O)CCCCCCC(=O)NCCCCNC(=S)Nc1ccc(CC2CN(CC(=O)O)CCN(CC(=O)O)CCN(CC(=O)O)CCN2CC(=O)O)cc1)C(=O)O)C(=O)O` (stereo partly drawn) [Compound 6, (21S,25S)-8,15,23-trioxo-1-((4-((1,4,7,10-tetrakis(carboxymethyl)-1,4,7,10-tetraazacyclododecan-2-yl)methyl)phenyl)amino)-1-thioxo-2,7,16,22,24-pentaazaheptacosane-21,25,27-tricarboxylic acid] registered an inhibitory constant (Ki) of 1.8 nM.
Still for that read-out and setting: next, `O=C([O-])CN1CCN(CC(=O)[O-])CCN(CC(=O)NC(Cc2ccccc2)C(=O)NC(Cc2ccccc2)C(=O)N[C@@H](CCCCNC(=O)CCCCCCC(=O)NCCCC[C@H](NC(=O)N[C@@H](CCC(=O)O)C(=O)O)C(=O)O)C(=O)O)CCN(CC(=O)[O-])CC1.[Y+3]` (stereo partly shown) [^89Y-4]: 0.36 nM; `O=C([O-])CN1CCN(CC(=O)[O-])CCN(CC(=O)NC(Cc2ccccc2)C(=O)NC(Cc2ccccc2)C(=O)NC(Cc2ccccc2)C(=O)N[C@@H](CCCCNC(=O)CCCCCCC(=O)NCCCC[C@H](NC(=O)N[C@@H](CCC(=O)O)C(=O)O)C(=O)O)C(=O)O)CCN(CC(=O)[O-])CC1.[Y+3]` (stereo partly shown) [^89Y-5] ({DOTA}-[ξF][ξF][ξF]K(X1)-OH): 0.1 nM.
With `NC(=O)CN1CCN(CC(N)=O)CCN(CC(N)=O)C(Cc2ccc(NC(=S)NCCCCNC(=O)CCCCCCC(=O)NCCCC[C@H](NC(=O)N[C@@H](CCC(=O)O)C(=O)O)C(=O)O)cc2)CN(CC(N)=O)CC1.[203Pb+2]` (stereo partly shown) [^203Pb-SR-IX-11], in data set [1] (2 H), the PIP/flu ratio turned out to be 114; the “Tissue biodistribution, Blood” value stood at 0.07 ± 0.01; the “Tissue biodistribution, PC-3 PIP” value is 21.64 ± 1.23; the “Tissue biodistribution, PC-3 flu” value amounted to 0.19 ± 0.04. Moreover, in data set [1] (2 H), the “Tissue biodistribution, Sm intestine” value is listed as 0.25 ± 0.15; the “Tissue biodistribution, bladder” value was found to be 8.64 ± 0.77; the “Tissue biodistribution, fat” value is given as 1.54 ± 1.64; the “Tissue biodistribution, heart” value is reported as 0.07 ± 0.01. In data set [1] (2 H), the “Tissue biodistribution, kidney” value came out at 3.61 ± 0.81; the “Tissue biodistribution, liver” value is 0.21 ± 0.01; the “Tissue biodistribution, lung” value is 0.24 ± 0.03; the “Tissue biodistribution, muscle” value turned out to be 0.78 ± 0.83. In data set [1] (2 H), the “Tissue biodistribution, pancreas” value is 0.06 ± 0.00; the “Tissue biodistribution, salivary gland” value is reported as 0.35 ± 0.10; the “Tissue biodistribution, spleen” value is on record as 0.25 ± 0.1; the “Tissue biodistribution, stomach” value is recorded as 0.12 ± 0.00.
With `O=C(O)CC[C@H](NC(=O)N[C@@H](CCCCNC(=O)CCCCCCC(=O)NCCCCNC(=S)Nc1ccc(CC2CN(CC(=O)O)CCN(CC(=O)O)CCN(CC(=O)O)CCN2CC(=O)O)cc1)C(=O)O)C(=O)O.[203Pb+2]` (stereo partly shown) [^203Pb-SR-VI-71], in data set [1] (1 H), the PIP/flu ratio worked out at 98; the “Tissue biodistribution, Blood” value is on record as 0.60 ± 0.05; the “Tissue biodistribution, PC-3 PIP” value worked out at 41.88 ± 7.60; the “Tissue biodistribution, PC-3 flu” value is reported as 0.43 ± 0.11. Moreover, in data set [1] (1 H), the “Tissue biodistribution, Sm intestine” value was 0.31 ± 0.05; the “Tissue biodistribution, bladder” value came out at 5.96 ± 2.24; the “Tissue biodistribution, fat” value is on record as 0.77 ± 0.29; the “Tissue biodistribution, heart” value worked out at 0.30 ± 0.03. In data set [1] (1 H), the “Tissue biodistribution, kidney” value stood at 75.18 ± 9.94; the “Tissue biodistribution, liver” value was determined as 1.09 ± 0.07; the “Tissue biodistribution, lung” value is listed as 1.20 ± 0.19; the “Tissue biodistribution, muscle” value turned out to be 0.22 ± 0.14. Also, in data set [1] (1 H), the “Tissue biodistribution, pancreas” value was 0.49 ± 0.09; the “Tissue biodistribution, salivary gland” value was 1.78 ± 0.69; the “Tissue biodistribution, spleen” value is 5.07 ± 1.68; the “Tissue biodistribution, stomach” value stood at 0.30 ± 0.04. Also, in data set [1] (2 H), the PIP/flu ratio was 130; the “Tissue biodistribution, Blood” value worked out at 0.31 ± 0.04; the “Tissue biodistribution, PC-3 PIP” value is 38.14 ± 6.30; the “Tissue biodistribution, PC-3 flu” value is recorded as 0.29 ± 0.14. Besides, in data set [1] (2 H), the “Tissue biodistribution, Sm intestine” value was found to be 0.23 ± 0.04; the “Tissue biodistribution, bladder” value was 10.40 ± 3.21; the “Tissue biodistribution, fat” value was determined as 0.31 ± 0.22; the “Tissue biodistribution, heart” value stood at 0.14 ± 0.06. In data set [1] (2 H), the “Tissue biodistribution, kidney” value is 39.35 ± 7.28; the “Tissue biodistribution, liver” value amounted to 1.01 ± 0.21; the “Tissue biodistribution, lung” value was 0.64 ± 0.14; the “Tissue biodistribution, muscle” value was found to be 0.22 ± 0.07. For the same compound, in data set [1] (2 H), the “Tissue biodistribution, pancreas” value is 0.29 ± 0.05; the “Tissue biodistribution, salivary gland” value amounted to 0.93 ± 0.07; the “Tissue biodistribution, spleen” value is on record as 1.59 ± 0.58; the “Tissue biodistribution, stomach” value worked out at 0.15 ± 0.03. In data set [1] (4 H), the PIP/flu ratio came out at 178; the “Tissue biodistribution, Blood” value was 0.24 ± 0.02; the “Tissue biodistribution, PC-3 PIP” value turned out to be 34.74 ± 7.37; the “Tissue biodistribution, PC-3 flu” value turned out to be 0.20 ± 0.06. Moreover, in data set [1] (4 H), the “Tissue biodistribution, Sm intestine” value is recorded as 0.15 ± 0.04; the “Tissue biodistribution, bladder” value came to 1.94 ± 0.49; the “Tissue biodistribution, fat” value was determined as 0.31 ± 0.18; the “Tissue biodistribution, heart” value came to 0.09 ± 0.01. Also, in data set [1] (4 H), the “Tissue biodistribution, kidney” value amounted to 22.75 ± 6.22; the “Tissue biodistribution, liver” value stood at 0.92 ± 0.09; the “Tissue biodistribution, lung” value is recorded as 0.28 ± 0.04; the “Tissue biodistribution, muscle” value was found to be 0.06 ± 0.02. In data set [1] (4 H), the “Tissue biodistribution, pancreas” value is listed as 0.24 ± 0.05; the “Tissue biodistribution, salivary gland” value is reported as 0.29 ± 0.02; the “Tissue biodistribution, spleen” value turned out to be 0.72 ± 0.16; the “Tissue biodistribution, stomach” value is 0.13 ± 0.03. Moreover, in data set [1] (24 H), the PIP/flu ratio is 194; the “Tissue biodistribution, Blood” value is 0.21 ± 0.02; the “Tissue biodistribution, PC-3 PIP” value was determined as 27.92 ± 7.01; the “Tissue biodistribution, PC-3 flu” value was 0.14 ± 0.01. In data set [1] (24 H), the “Tissue biodistribution, Sm intestine” value is recorded as 0.04 ± 0.03; the “Tissue biodistribution, bladder” value is given as 0.31 ± 0.16; the “Tissue biodistribution, fat” value came out at 0.05 ± 0.06; the “Tissue biodistribution, heart” value was determined as 0.07 ± 0.01. Further, in data set [1] (24 H), the “Tissue biodistribution, kidney” value amounted to 7.01 ± 0.80; the “Tissue biodistribution, liver” value worked out at 0.64 ± 0.04; the “Tissue biodistribution, lung” value came out at 0.16 ± 0.01; the “Tissue biodistribution, muscle” value is 0.04 ± 0.03. For the same compound, in data set [1] (24 H), the “Tissue biodistribution, pancreas” value was 0.09 ± 0.06; the “Tissue biodistribution, salivary gland” value was 0.10 ± 0.05; the “Tissue biodistribution, spleen” value is listed as 0.24 ± 0.02; the “Tissue biodistribution, stomach” value is 0.07 ± 0.01.
On PSMA, `O=C(O)CC[C@H](NC(=O)N[C@@H](CCCCNC(=O)CCCCCCC(=O)NCCCC[C@H](NC(=O)C(Cc1ccccc1)NC(=O)C(Cc1ccccc1)NC(=O)C(Cc1ccccc1)NC(=O)CN1CCN(CC(=O)O)CCN(CC(=O)O)CCN(CC(=O)O)CC1)C(=O)O)C(=O)O)C(=O)O` (stereo partly shown) [Compound 5] gave an inhibition constant (Ki) of 3.12 nM.
